Laboratory results reported in patent publication US20060247261A1 (priority 2002, published 2006).

Target: T1, human cannabinoid CB2 receptor (Homo sapiens, UniProt P34972)
T1 construct: expressed in transfected cells; host or cells: Saccharomyces cerevisiae strain MMY23 (expresses a chimeric Gpa1/human Galpha-i3 G-protein alpha subunit)
Test: Cannabinoid CB2 receptor agonist activity, yeast reporter assay
Type: cell-based
Details: for Emax: read-out: efficacy (Emax) at the cloned human cannabinoid CB2 receptor
Source text: Yeast (Saccharomyces cerevisiae) cells expressing the human cannabinoid CB2 receptor were generated by integration of an expression cassette into the ura3 chromosomal locus of yeast strain MMY23. This cassette consisted of DNA sequence encoding the human CB2 receptor flanked by the yeast GPD promoter to the 5′ end of CB2 and a yeast transcriptional terminator sequence to the 3′ end of CB2. MMY23 expresses a yeast/mammalian chimeric G-protein alpha subunit in which the C-terminal 5 amino acids of Gpa1 are replaced with the C-terminal 5 amino acids of human Gαi3 (as described in Brown et al. (2000), Yeast 16:11-22).
Agonists were prepared as 10 mM stocks in DMSO. […] Agonist solutions in DMSO (1% final assay volume) were transferred into black, clear bottom, microtitre plates from NUNC (96- or 384-well). […] Fluorescence was plotted against compound concentration and iteratively curve fitted using a four parameter fit to generate a concentration effect value.

T1 sequence (P34972 whole entry): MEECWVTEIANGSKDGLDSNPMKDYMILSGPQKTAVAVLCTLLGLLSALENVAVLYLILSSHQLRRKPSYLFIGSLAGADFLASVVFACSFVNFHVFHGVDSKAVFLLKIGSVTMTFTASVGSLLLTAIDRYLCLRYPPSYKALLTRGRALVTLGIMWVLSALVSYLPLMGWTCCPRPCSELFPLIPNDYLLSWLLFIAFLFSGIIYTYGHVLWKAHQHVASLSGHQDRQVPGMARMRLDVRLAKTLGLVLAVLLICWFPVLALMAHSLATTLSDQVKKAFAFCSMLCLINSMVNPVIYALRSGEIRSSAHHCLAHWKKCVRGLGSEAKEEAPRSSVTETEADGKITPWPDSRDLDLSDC

O=C(NCc1ccccc1)c1cnc(Nc2ccc(Cl)c(Cl)c2)nc1C(F)(F)F [Example 9, 2-(3,4-Dichlorophenylamino)-4-trifluoromethylpyrimidine-5-carboxylic acid benzyl-amide]
EC50: 20 to 1000 nM | Emax: > 50%

N#Cc1ccc(CNC(=O)c2cnc(Nc3cc(Cl)ccc3Cl)nc2C(F)(F)F)cc1 [Example 67, 2-(2,5-Dichloro-phenylamino)-4-trifluoromethyl-pyrimidine-5-carboxylic acid N-(4-cyano-benzyl)amide]
EC50: > 1000 nM | Emax: < 50%

COc1ccccc1Nc1ncc(C(=O)NCc2ccccc2)c(C(F)(F)F)n1 [Example 15, 2-(2-Methoxyphenylamino)-4-trifluoromethylpyrimidine-5-carboxylic acid benzyl-amide]
EC50: 20 to 1000 nM | Emax: > 50%

O=C(NCc1ccccc1)c1cnc(Nc2cccc(F)c2)nc1C(F)(F)F [Example 12, 2-(3-Fluorophenylamino)-4-trifluoromethylpyrimidine-5-carboxylic acid benzyl-amide]
EC50: 20 to 1000 nM | Emax: > 50%

O=C(NCc1ccccc1)c1cnc(Nc2ccccc2Cl)nc1C(F)(F)F [Example 43, 2-(2-Chloro-phenylamino)-4-trifluoromethyl-pyrimidine-5-carboxylic acid N-benzylamide]
EC50: > 1000 nM | Emax: < 50%

CN(Cc1ccccc1)C(=O)c1cnc(Nc2cccc(Cl)c2)nc1C(F)(F)F [Example 3, 2-(3-Chlorophenylamino)-4-trifluoromethylpyrimidine-5-carboxylic acid N-benzyl-N-methylamide]
EC50: 20 to 1000 nM | Emax: > 50%

O=C(NCc1ccncc1)c1cnc(Nc2ccc(Cl)c(Cl)c2)nc1C(F)(F)F [Example 18]
EC50: 20 to 1000 nM | Emax: > 50%

O=C(NCc1ccc(F)cc1F)c1cnc(Nc2cccc(Cl)c2)nc1C(F)(F)F [Example 103, 2-(3-Chloro-phenylamino)-4-trifluoromethyl-pyrimidine-5-carboxylic acid 2,4-difluoro-benzylamide]
EC50: 20 to 1000 nM | Emax: > 50%

O=C(NCc1ccccc1)c1cnc(Nc2cccc(Br)c2)nc1C(F)(F)F [Example 13, 2-(3-Bromophenylamino)-4-trifluoromethylpyrimidine-5-carboxylic acid benzyl-amide]
EC50: 20 to 1000 nM | Emax: > 50%

Cc1ccc(CNC(=O)c2cnc(Nc3cccc(Cl)c3)nc2C(F)(F)F)cc1 [Example 78, 2-(3-Chloro-phenylamino)-4-trifluoromethyl-pyrimidine-5-carboxylic acid N-(4-methyl-benzyl)amide]
EC50: > 1000 nM | Emax: < 50%

O=C(NCc1ccncc1)c1cnc(Nc2cccc(Cl)c2Cl)nc1C(F)(F)F [Example 16]
EC50: 20 to 1000 nM | Emax: > 50%

O=C(NCc1ccnc(F)c1)c1cnc(Nc2ccc(Cl)cc2Cl)nc1C(F)(F)F [Example 95, 2-(2,4-Dichloro-phenylamino)-4-trifluoromethyl-pyrimidine-5-carboxylic acid (2-fluoro-pyridin-4-ylmethyl)-amide]
EC50: 20 to 1000 nM | Emax: > 50%

N#Cc1ccc(CNC(=O)c2cnc(Nc3cccc(Cl)c3)nc2C(F)(F)F)cc1 [Example 6, 2-(3-Chlorophenylamino)-4-trifluoromethylpyrimidine-5-carboxylic acid 4 cyanobenzyl-amide]
EC50: 20 to 1000 nM | Emax: > 50%

O=C(NCc1ccncc1)c1cnc(Nc2ccc(Cl)cc2Cl)nc1C(F)(F)F [Example 17, 2-(2,4-Dichlorophenylamino)-4-trifluoromethylpyrimidine-5-carboxylic acid (pyridin-4-ylmethyl)amide]
EC50: 20 to 1000 nM | Emax: > 50%

NC(=O)c1ccc(CNC(=O)c2cnc(Nc3cccc(Cl)c3)nc2C(F)(F)F)cc1 [Example 105, 2-(3-Chloro-phenylamino)-4-trifluoromethyl-pyrimidine-5-carboxylic acid 4-carbarnoyl-benzylamide]
EC50: > 1000 nM | Emax: < 50%
